Where two headings read alike, the source gives them in different places. Values belong to the compound of their own block, whether it stands above or below them.
Experiments:
[1] = test system: DLD-1 cells; test: Sensitivity of DLD-1 versus HCT-116 cells to EBP inhibitors; type: cell-based, human; conditions: varying doses
[2] = test system: DLD1 tumors; test: Xenograft mouse model, DLD1 tumors; type: in vivo; conditions: nude mice, 40 mg/kg intraperitoneally twice daily for 18 days
[3] = test system: colorectal tumors in CPC;Apc mice; test: Anti-tumor effects in CPC;Apc mice; type: in vivo, mouse; conditions: 90 days' treatment
Procedure: These mice carry a CDX2P-NLS Cre recombinase transgene and a loxP-targeted Apc allele that deletes exon 14, leading to a frame shift at codon 580 and a truncated APC protein. […] Weights were measured every 15 days over the treatment period. These studies were performed according to the guidelines of the UT Southwestern Institutional Animal Care and Use Committee.

[4] = Mouse PK analysis, plasma; type: in vivo; conditions: for Cmax: female, CD-1, mouse, plasma, dosed intravenously (i.v.)
[5] = Mouse PK analysis, large intestine; type: in vivo; conditions: for AUC(0-t): female, CD-1, mouse, large intestine, read-out: Large Intestinal pK AUClast (converted)

Structure (SMILES): CC(C(O)c1ccc(O)cc1)N1CCC(Cc2ccccc2)CC1 (stereo not shown) [Ifenprodil, ifenprodil]
selective sensitivity of DLD-1 versus HCT-116 cells [1]: selectively sensitive

Structure (SMILES): COc1ccc2c(c1)CCC(c1ccccc1)=C2c1ccc(OCCN2CCCC2)cc1 [Nafoxidine, nafoxidine]
selective sensitivity of DLD-1 versus HCT-116 cells [1]: selectively sensitive

Structure (SMILES): COc1ccc(S(=O)(=O)N2CCC(N3CCC(C)CC3)CC2)cc1 [TASIN-1]
toxicity and body weights [2]: no overt toxicity and no statistically significant differences were observed in the body weights
body weight over treatment [3]: gained weight to a level similar to WT mice

Structure (SMILES): COc1ccc(S(=O)(=O)N2CCC(N3CCC(C)CC3)CC2)cc1 [compound 6, 1′-((4-methoxyphenyl)sulfonyl)-4-methyl-1,4′-bipiperidine]
Plasma pK AUClast (ng · min/mL) ([4]; ip, 10 mg/kg): 104,103 ng · min/mL
Plasma pK Cmax (ng/mL) ([4]; ip, 10 mg/kg): 2,390 ng/mL
Plasma pK Tmax (min) ([4]; ip, 10 mg/kg): 10 min
Plasma pK Vz (mL) ([4]; ip, 10 mg/kg): 162 mL
AUC(0-t) ([5]; ip, 10 mg/kg): 12300 ng·h/mL

Structure (SMILES): CC1CCN(C2CCN(S(=O)(=O)c3ccc(OC(F)F)cc3)CC2)CC1 [compound 22, 1′-((4-(Difluoromethoxy)phenyl)sulfonyl)-4-methyl-1,4′-bipiperidine]
oral bioavailablity ([4]; 20 mg/kg): 52%
Cmax ([4]; iv): 191 to 742 ng/mL
Plasma pK AUClast (ng · min/mL) ([4]; ip, 10 mg/kg): 205,914 ng · min/mL
Plasma pK Cmax (ng/mL) ([4]; ip, 10 mg/kg): 1,117 ng/mL
Plasma pK Tmax (min) ([4]; ip, 10 mg/kg): 10 min
Plasma pK Vz (mL) ([4]; ip, 10 mg/kg): 156 mL
Plasma pK AUClast (ng · min/mL) ([4]; iv, 5 mg/kg): 197,571 ng · min/mL
Plasma pK Cmax (ng/mL) ([4]; iv, 5 mg/kg): 742 ng/mL
Plasma pK Tmax (min) ([4]; iv, 5 mg/kg): 10 min
Plasma pK Vz (mL) ([4]; iv, 5 mg/kg): 135 mL
Plasma pK AUClast (ng · min/mL) ([4]; po, 20 mg/kg): 328,296 ng · min/mL
Plasma pK Cmax (ng/mL) ([4]; po, 20 mg/kg): 691 ng/mL
Plasma pK Vz (mL) ([4]; po, 20 mg/kg): 153 mL
melting point: 132 to 135 °C
AUC(0-t) ([5]; ip, 10 mg/kg): 13200 ng·h/mL
AUC(0-t) ([5]; iv, 5 mg/kg): 8530 ng·h/mL
AUC(0-t) ([5]; po, 20 mg/kg): 14800 ng·h/mL
Large Intestinal pK Tmax (min) ([5]; po, 20 mg/kg): 10 min

More lines, now with the values ahead:

Cmax ([4]; iv): 191 to 742 ng/mL
Plasma pK AUClast (ng · min/mL) ([4]; iv, 10 mg/kg): 21,581 ng · min/mL
Plasma pK Cmax (ng/mL) ([4]; iv, 10 mg/kg): 191 ng/mL
Plasma pK Tmax (min) ([4]; iv, 10 mg/kg): 30 min
Plasma pK Vz (mL) ([4]; iv, 10 mg/kg): 1243 mL
melting point: 152 to 155 °C
AUC(0-t) ([5]; iv, 10 mg/kg): 4380 ng·h/mL
Large Intestinal pK Tmax (min) ([5]; iv, 10 mg/kg): 10 min
Structure (SMILES): CC1CCN(C2CCN(S(=O)(=O)c3ccc(Cl)cc3)CC2)CC1 [compound 16, 1′-((4-Chlorophenyl)sulfonyl)-4-methyl-1,4′-bipiperidine]

melting point: 136 to 139 °C
Structure (SMILES): CC1CCN(CC2CCN(S(=O)(=O)c3ccc(-c4ccccc4F)cc3)CC2)CC1 [compound 154, 1-((2′-fluoro-[1,1′-biphenyl]-4-yl)sulfonyl)-4-((4-methylpiperidin-1-yl)methyl)piperidine]

melting point: 148 to 151 °C
Structure (SMILES): CC1CCN(CC2CCN(S(=O)(=O)c3ccc(-c4ccccc4)cc3)CC2)CC1 [compound 155, 1-([1,1′-biphenyl]-4-ylsulfonyl)-4-((4-methylpiperidin-1-yl)methyl)piperidine]

Source: patent US20220024891A1 (The Board of Regents of the University of Texas System, priority 2018, published 2022)
